Laboratory results reported in ChEMBL document CHEMBL4665802, “Design, Synthesis, and Structure-Activity Relationships of Indoline-Based Kelch-like ECH-Associated Protein 1-Nuclear Factor (Erythroid-Derived 2)-Like 2 (Keap1-Nrf2) Protein-Protein Interaction Inhibitors” (J Med Chem, 2020).
Activity calls are given as the source filed them. The rule behind the calls is not given here.

Tests used:
[1] = Intrinsic clearance in human liver microsome at 1 uM preincubated for 5 mins followed by NADPH addition and measured after 45 mins by LC-MS/MS analysis; assay type: ADME; conditions: microsomes, 0.75 h
[2] = Permeability of the compound at pH 7.4 incubated for 4 hrs by PAMPA; assay type: ADME; conditions: read-out: permeability
CYP1A2 = molecular target: T1, CYP1A2 (Homo sapiens, UniProt P05177); test: Inhibition of CYP1A2 (unknown origin) at 10 uM using 7-ethoxycoumarin as substrate preincubated for 5 mins followed by NADPH addition and measured after 20 mins by LC-MS/MS analysis relative to control; assay type: ADME; conditions: probe 7-ethoxycoumarin
T1 sequence (P05177 whole entry): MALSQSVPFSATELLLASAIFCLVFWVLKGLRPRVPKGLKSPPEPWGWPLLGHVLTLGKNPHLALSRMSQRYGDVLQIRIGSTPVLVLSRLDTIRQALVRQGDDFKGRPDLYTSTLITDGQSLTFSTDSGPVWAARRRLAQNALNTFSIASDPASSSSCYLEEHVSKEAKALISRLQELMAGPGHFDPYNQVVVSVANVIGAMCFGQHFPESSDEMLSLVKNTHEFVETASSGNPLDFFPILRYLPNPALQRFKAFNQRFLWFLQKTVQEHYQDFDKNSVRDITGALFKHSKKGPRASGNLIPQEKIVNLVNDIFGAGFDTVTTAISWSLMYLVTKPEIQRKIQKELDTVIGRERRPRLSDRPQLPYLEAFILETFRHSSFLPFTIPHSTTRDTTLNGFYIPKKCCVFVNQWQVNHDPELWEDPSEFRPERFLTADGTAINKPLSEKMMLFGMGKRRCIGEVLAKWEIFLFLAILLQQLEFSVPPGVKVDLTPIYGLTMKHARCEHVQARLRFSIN

CYP2C9 = CYP2C9 (Homo sapiens, UniProt P11712); test: Inhibition of CYP2C9 (unknown origin) at 10 uM using […] as substrate preincubated for 5 mins followed by NADPH addition and measured after 20 mins by LC-MS/MS analysis relative to control; assay type: ADME
CYP2C9, sequence (P11712 whole entry): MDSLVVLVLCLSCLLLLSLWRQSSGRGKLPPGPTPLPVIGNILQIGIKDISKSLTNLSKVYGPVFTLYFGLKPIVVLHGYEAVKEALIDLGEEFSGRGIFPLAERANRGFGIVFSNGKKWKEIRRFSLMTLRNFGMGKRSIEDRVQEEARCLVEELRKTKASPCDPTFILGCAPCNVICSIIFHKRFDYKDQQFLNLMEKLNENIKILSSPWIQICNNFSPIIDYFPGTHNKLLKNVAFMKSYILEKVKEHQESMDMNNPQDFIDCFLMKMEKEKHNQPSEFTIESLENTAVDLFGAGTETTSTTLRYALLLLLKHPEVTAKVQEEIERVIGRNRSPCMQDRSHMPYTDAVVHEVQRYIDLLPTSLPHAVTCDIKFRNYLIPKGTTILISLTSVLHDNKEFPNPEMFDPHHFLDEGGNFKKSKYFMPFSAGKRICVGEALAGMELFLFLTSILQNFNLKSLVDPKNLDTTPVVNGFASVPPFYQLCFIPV

CYP2C19 = CYP2C19 (Homo sapiens, UniProt P33261); test: Inhibition of CYP2C19 (unknown origin) at 10 uM using omeprazole as substrate preincubated for 5 mins followed by NADPH addition and measured after 20 mins by LC-MS/MS analysis relative to control; assay type: ADME; conditions: probe omeprazole
CYP2C19, sequence (P33261 whole entry): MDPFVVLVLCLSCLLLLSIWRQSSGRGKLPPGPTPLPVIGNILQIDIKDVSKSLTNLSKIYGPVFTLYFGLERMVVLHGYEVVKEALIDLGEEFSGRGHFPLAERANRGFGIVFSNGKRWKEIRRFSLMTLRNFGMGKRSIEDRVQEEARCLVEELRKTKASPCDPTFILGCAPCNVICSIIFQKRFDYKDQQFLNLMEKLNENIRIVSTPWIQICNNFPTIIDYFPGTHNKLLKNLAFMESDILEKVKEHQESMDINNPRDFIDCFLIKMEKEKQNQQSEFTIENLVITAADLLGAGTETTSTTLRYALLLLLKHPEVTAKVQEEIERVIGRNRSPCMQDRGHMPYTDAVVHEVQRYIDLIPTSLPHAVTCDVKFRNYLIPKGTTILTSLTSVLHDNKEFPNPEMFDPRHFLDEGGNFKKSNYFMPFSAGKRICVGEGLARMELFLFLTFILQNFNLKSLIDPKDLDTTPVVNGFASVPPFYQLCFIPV

CYP2D6 = CYP2D6 (Homo sapiens, UniProt P10635); test: Inhibition of CYP2D6 (unknown origin) at 10 uM using promethazine as substrate preincubated for 5 mins followed by NADPH addition and measured after 20 mins by LC-MS/MS analysis relative to control; assay type: ADME; conditions: probe promethazine
CYP2D6, sequence (P10635 whole entry): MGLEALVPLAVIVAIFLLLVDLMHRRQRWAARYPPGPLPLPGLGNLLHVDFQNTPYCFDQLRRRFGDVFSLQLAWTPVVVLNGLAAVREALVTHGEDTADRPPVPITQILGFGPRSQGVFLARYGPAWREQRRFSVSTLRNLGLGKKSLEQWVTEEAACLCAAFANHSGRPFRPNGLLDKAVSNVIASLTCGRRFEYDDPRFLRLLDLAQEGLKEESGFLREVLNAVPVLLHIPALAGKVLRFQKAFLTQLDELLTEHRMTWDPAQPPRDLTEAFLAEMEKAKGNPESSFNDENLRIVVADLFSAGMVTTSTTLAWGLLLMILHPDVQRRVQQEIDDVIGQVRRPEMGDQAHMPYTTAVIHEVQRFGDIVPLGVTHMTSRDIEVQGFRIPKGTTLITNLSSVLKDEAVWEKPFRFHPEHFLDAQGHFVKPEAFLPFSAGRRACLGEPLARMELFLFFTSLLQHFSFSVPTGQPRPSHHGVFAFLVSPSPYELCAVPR

CYP3A4 = CYP3A4 (Homo sapiens, UniProt P08684); test: Inhibition of CYP3A4 (unknown origin) at 10 uM using […] as substrate preincubated for 5 mins followed by NADPH addition and measured after 20 mins by LC-MS/MS analysis relative to control; assay type: ADME
CYP3A4, sequence (P08684 whole entry): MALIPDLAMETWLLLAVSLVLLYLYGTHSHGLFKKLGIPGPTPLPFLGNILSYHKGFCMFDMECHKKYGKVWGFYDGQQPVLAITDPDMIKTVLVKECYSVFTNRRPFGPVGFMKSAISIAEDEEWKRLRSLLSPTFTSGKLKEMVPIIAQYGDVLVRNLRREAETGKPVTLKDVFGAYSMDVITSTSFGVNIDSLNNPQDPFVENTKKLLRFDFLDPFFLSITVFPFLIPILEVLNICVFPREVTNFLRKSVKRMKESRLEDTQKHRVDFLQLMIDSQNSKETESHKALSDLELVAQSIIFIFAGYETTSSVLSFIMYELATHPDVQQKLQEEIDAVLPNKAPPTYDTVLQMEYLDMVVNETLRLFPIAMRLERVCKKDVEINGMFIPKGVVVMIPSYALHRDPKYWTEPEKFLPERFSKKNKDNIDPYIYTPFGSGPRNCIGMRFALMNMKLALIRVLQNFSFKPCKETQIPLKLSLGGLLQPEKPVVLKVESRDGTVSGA

[3] = Cmax in rat at 5 mg/kg, iv by LC-MS/MS analysis; assay type: ADME, organism-based; parameters: route intravenous, dose 5 mg/kg; conditions: in vivo
[4] = AUC (0 to infinity) in rat at 5 mg/kg, iv by LC-MS/MS analysis; assay type: ADME, organism-based; parameters: time infinity, route intravenous, dose 5 mg/kg; conditions: in vivo
[5] = Apparent volume of distribution in rat at 5 mg/kg, iv by LC-MS/MS analysis; assay type: ADME, organism-based; conditions: in vivo, read-out: Vz
H9c2 [6] = test: Upregulation of Nrf2 mRNA expression in rat H9c2 cells incubated for 12 hrs by Trizol reagent based qRT-PCR analysis; assay type: functional, cell-based; conditions: dose microM 0.1-10, time 12.0 hrs
[7] = molecular target: T2, KEAP1/NRF2 (Rattus norvegicus) (UniProt O54968+P57790); test: Inhibition of Keap1-Nrf2 protein-protein interaction in rat H9c2 cells assessed as upregulation of HO1 mRNA expression incubated for 12 hrs by Trizol reagent based qRT-PCR analysis; assay type: cell-based; conditions: dose microM 0.1-10, time 12.0 hrs
H9c2 [8] = test: Upregulation of Nrf2 protein levels in rat H9c2 cells incubated for 12 hrs by Western blot analysis; assay type: functional, cell-based; conditions: dose microM 0.1-10, time 12.0 hrs
H9c2 [9] = test: Cytotoxicity against rat H9c2 cells assessed as reduction in cell viability up to 100 uM incubated for 24 hrs by MTT assay; assay type: cell-based; conditions: h9c2, 24 h
H9c2 [10] = test: Cytoprotective activity against LPS-induced sepsis in rat H9c2 cells assessed as increase in cell viability pretreated with compound for 12 hrs followed by LPS addition measured after 12 hrs by MTT assay; assay type: functional, cell-based; conditions: dose microM 0.1-10, time 24.0 hrs
H9c2 [11] = test: Antiinflammatory activity against LPS-induced sepsis in rat H9c2 cells assessed as decrease in secretion of TNF-alpha at 1 to 10 uM pretreated for 12 hrs followed by LPS addition measured after 12 hrs by sandwich ELISA; assay type: functional, cell-based; conditions: dose microM 1-10, time 24.0 hrs
H9c2 [12] = test: Antioxidant activity against LPS-induced injury in rat H9c2 cells assessed as decrease in ROS level at 10 uM pretreated for 12 hrs followed by LPS addition measured after 12 hrs by H2DCFDA probe based flow cytometry; assay type: functional, cell-based; conditions: time 24.0 hrs
Mus musculus [13] = test: Cardioprotective activity in LPS-stimulated sepsis in C57BL/6 mouse assessed as reduction in heart tissue damage at 10 mg/kg, ip qd administered for 3 days prior to LPS stimulation and measured after 12 hrs by hematoxylin and eosin staining based microscopy; assay type: functional, organism-based; conditions: time 3.5 day
Mus musculus [14] = test: Cardioprotective activity in LPS-stimulated sepsis in C57BL/6 mouse assessed as reduction in heart tissue inflammation at 10 mg/kg, ip qd administered for 3 days prior to LPS stimulation and measured after 12 hrs by hematoxylin and eosin staining based microscopy; assay type: functional, organism-based; conditions: time 3.5 day
Mus musculus [15] = test: Antiinflammatory activity in LPS-stimulated sepsis in C57BL/6 mouse assessed as decrease in IL-6 levels at 10 mg/kg, ip qd administered for 3 days prior to LPS stimulation and measured after 12 hrs by ELISA; assay type: functional, organism-based; conditions: time 3.5 day
Mus musculus [16] = test: Upregulation of Nrf2 protein levels in LPS-stimulated C57BL/6 mouse model at 10 to 40 mg/kg, ip qd administered for 3 days prior to LPS stimulation and measured after 12 hrs by Western blot analysis; assay type: functional, organism-based; conditions: dose mg/kg 10-40, time 3.5 day
Mus musculus [17] = test: Upregulation of HO1 expression in LPS-stimulated C57BL/6 mouse model of sepsis at 10 to 40 mg/kg, ip qd administered for 3 days prior to LPS stimulation and measured after 12 hrs by Western blot analysis; assay type: functional, organism-based; conditions: dose mg/kg 10-40, time 3.5 day
Mus musculus [18] = test: Upregulation of GCLM expression in LPS-stimulated C57BL/6 mouse model of sepsis at 10 to 40 mg/kg, ip qd administered for 3 days prior to LPS stimulation and measured after 12 hrs by Western blot analysis; assay type: functional, organism-based; conditions: dose mg/kg 10-40, time 3.5 day
[19] = molecular target: T2, KEAP1/NRF2 (Rattus norvegicus); test: Inhibition of Keap1-Nrf2 protein-protein interaction in rat H9c2 cells assessed as upregulation of HO1 mRNA expression at 10 uM incubated for 4 to 24 hrs by Trizol reagent based qRT-PCR analysis; assay type: cell-based; conditions: time hrs 4-24
[20] = molecular target: T2, KEAP1/NRF2 (Rattus norvegicus); test: Inhibition of Keap1-Nrf2 protein-protein interaction in rat H9c2 cells assessed as upregulation of NQO1 mRNA expression at 10 uM incubated for 4 to 24 hrs by Trizol reagent based qRT-PCR analysis; assay type: cell-based; conditions: time hrs 4-24
H9c2 [21] = test: Upregulation of Nrf2 protein levels in rat H9c2 cells at 10 uM incubated up to 24 hrs by Western blot; assay type: functional, cell-based; conditions: time hrs <=24

CLH [1]: 11.4 mL/min/kg
Papp at 4 h [2]: 5.27 ×10⁻⁶ cm/s
inhibition at 20 min, 10 µM (CYP1A2): 8.75%
inhibition at 20 min, 10 µM (CYP2C9): 30.3%
inhibition at 20 min, 10 µM (CYP2C19): 19.8%
inhibition at 20 min, 10 µM (CYP2D6): 19.9%
inhibition at 20 min, 10 µM (CYP3A4): 46.9%
Cmax [3]: 78.2 µg/mL
AUC(0-inf) [4]: 47000 ng·h/mL
Vd [5]: 0.64 L/kg
inhibition [7]: Dose-dependent effect
inhibition [19]: Active
inhibition [20]: Active
SMILES: COc1ccc(S(=O)(=O)NC(=O)CN(c2cccc3c2CCN3C(C(=O)NS(=O)(=O)c2ccc(C)cc2OC)c2cccc(OC)c2)S(=O)(=O)c2ccc(OC)cc2)cc1 (stereo unspecified)
Activity (H9c2 [6]): Dose-dependent effect
Activity (H9c2 [8]): Dose-dependent effect
Activity (H9c2 [9]): Non-Toxic
Activity (H9c2 [10]): Dose-dependent effect
Activity (H9c2 [11]): Active
Activity (H9c2 [12]): Active
Activity (Mus musculus [13]): Active
Activity (Mus musculus [14]): Active
Activity (Mus musculus [15]): Active
Activity (Mus musculus [16]): Active
Activity (Mus musculus [17]): Active
Activity (Mus musculus [18]): Active
Activity (H9c2 [21]): Active
